How the values were obtained:
Assay in all cases: relative viability (nuclei count vs DMSO), 5 days (fraction); higher = more cells survive
[1] = compound: CN(C)C(=N)NC(=N)N [Metformin] + COc1cc2c(Oc3ccc(NC(=O)C4(C(=O)Nc5ccc(F)cc5)CC4)cc3F)ccnc2cc1OCCCN1CCOCC1 [Foretinib] (partner 0.25 µM)
Outline: (§1)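 The day after seeding in 1536-well plates, lung cancer cell lines were treated by pin tool with a single drug, or with a fixed anchor-drug dose together with five library-drug doses (not always all listed) in √10 steps. After 5 days, a combined fix-and-stain solution (final 0.05% Triton X-100, 1% formaldehyde, 1 ug/ml Hoechst) was added. Nuclei counted on 4× images gave relative viability as treated counts over vehicle counts, reported as the median of duplicate plates.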

[2] = compound: CN(C)C(=N)NC(=N)N [Metformin] + C[C@@H](Oc1cc(-c2cnn(C3CCNCC3)c2)cnc1N)c1c(Cl)ccc(F)c1Cl [Crizotinib] (partner 1 µM)
Outline: as §1

[3] = compound: CN(C)C(=N)NC(=N)N [Metformin] + C[C@]1(O)C[C@@H](c2nc(-c3ccc4ccc(-c5ccccc5)nc4c3)c3c(N)nccn32)C1 [Linsitinib] (partner 1 µM)
Outline: as §1

[4] = compound: N#CC1(c2ccc(NC(=O)c3cccnc3NCc3ccncc3)cc2)CCCC1 [Apatinib] + CS(=O)(=O)N1CCN(Cc2cc3nc(-c4cccc5[nH]ncc45)nc(N4CCOCC4)c3s2)CC1 [Pictilisib] (partner 1 µM)
Outline: as §1

Row | Cell Line | relative viability ([1]; first compound 10 µM) | relative viability ([1]; first compound 31.62 µM) | relative viability ([1]; first compound 100 µM) | relative viability ([1]; first compound 316.23 µM) | relative viability ([1]; first compound 1000 µM) | relative viability ([2]; first compound 10 µM) | relative viability ([2]; first compound 31.62 µM) | relative viability ([2]; first compound 100 µM) | relative viability ([2]; first compound 316.23 µM) | relative viability ([2]; first compound 1000 µM) | relative viability ([3]; first compound 10 µM) | relative viability ([3]; first compound 31.62 µM) | relative viability ([3]; first compound 100 µM) | relative viability ([3]; first compound 316.23 µM) | relative viability ([3]; first compound 1000 µM) | relative viability ([4]; first compound 0.08 µM) | relative viability ([4]; first compound 0.253 µM) | relative viability ([4]; first compound 0.8 µM) | relative viability ([4]; first compound 2.53 µM) | relative viability ([4]; first compound 8 µM)
1 | LOU-NH91 | 1.03 | 1.02 | 1.03 | 0.972 | 1.06 | 0.747 | 0.806 | 0.766 | 0.802 | 0.847 | 1.01 | 0.876 | 0.986 | 1.09 | 0.905 | 0.516 | 0.56 | 0.499 | 0.466 | 0.522
2 | CAL-12T | 1.25 | 1.32 | 1.04 | 1.04 | 0.76 | – | 0.64 | 0.552 | 0.611 | 0.521 | 0.818 | 0.81 | 0.824 | 0.691 | 0.759 | 0.304 | 0.352 | 0.393 | 0.484 | 0.353
3 | IA-LM | 1.18 | 1.27 | 1.43 | 1.11 | 1.28 | 0.76 | 0.944 | – | 0.926 | 0.973 | 0.119 | 0.729 | 0.611 | 0.404 | 0.78 | 0.384 | 0.266 | 0.363 | 0.325 | 0.287
4 | NCI-H1703 | 0.497 | 0.504 | 0.549 | 0.474 | 0.496 | 0.989 | 0.934 | 0.66 | 0.679 | 0.886 | 1.41 | 0.892 | 0.832 | 0.485 | 0.599 | 0.239 | 0.272 | 0.198 | 0.222 | 0.221
5 | BEN | 1.08 | 1.25 | 1.04 | 0.799 | 1.33 | 1.16 | 1.24 | 1.15 | 1.01 | 1.13 | 1.21 | 1.27 | 1.3 | 1.15 | 1.29 | 0.557 | 0.526 | 0.55 | 0.464 | 0.468
6 | EMC-BAC-2 | 1.03 | 1.1 | 1.09 | 0.976 | 1.09 | 0.731 | 0.8 | 0.828 | 0.702 | 0.805 | 0.795 | 0.812 | 0.799 | 0.783 | 0.853 | 0.561 | 0.593 | 0.572 | 0.516 | 0.527
7 | NCI-H1355 | 0.941 | 1.05 | 0.998 | 0.972 | 0.99 | 1.01 | 1.06 | 1.03 | 0.986 | 1.11 | 0.782 | 0.783 | 0.756 | 0.731 | 0.854 | 0.499 | 0.42 | 0.428 | 0.382 | 0.364
8 | SW 900 | 0.919 | 0.884 | 0.736 | 0.846 | 0.882 | – | – | – | – | – | – | – | – | – | – | – | – | – | – | –
9 | A-427 | 1.12 | 1.2 | 0.954 | 0.981 | 1.23 | 0.802 | 1.17 | 0.84 | 0.926 | 0.896 | 1.09 | 1.13 | 1.09 | 1.1 | 1.04 | 0.925 | 0.679 | 0.715 | 0.611 | 0.592
10 | NCI-H1793 | 0.78 | – | 1.01 | 0.743 | 1.18 | – | – | – | – | – | 1.3 | 1.22 | 1.14 | 1 | 1.16 | 0.277 | 0.23 | 0.391 | 0.256 | 0.342
11 | NCI-H1563 | 0.99 | 1.02 | 1.09 | 1.01 | 1.05 | 0.855 | 0.889 | 0.865 | 0.793 | 0.827 | 1.22 | 1.34 | 1.19 | 0.955 | 0.893 | 0.644 | 0.656 | 0.62 | 0.644 | 0.632
12 | ChaGo-K-1 | 0.924 | 1.07 | 0.959 | 0.864 | 0.962 | 1.16 | 1.07 | 1.09 | 1.13 | 1.19 | – | – | – | – | – | – | 0.999 | 0.721 | 0.638 | 0.725
13 | HCC-44 | – | – | – | – | – | 0.824 | 0.788 | 0.785 | 0.749 | 0.776 | 0.712 | 0.679 | 0.695 | 0.597 | 0.654 | 0.639 | 0.686 | 0.584 | 0.548 | 0.659
14 | NCI-H1395 | 0.965 | 1 | 1.04 | 0.883 | 0.997 | – | – | – | – | – | 0.997 | 1.15 | 0.934 | 1.02 | 0.385 | 0.594 | 0.552 | 0.64 | 0.524 | 0.555
15 | NCI-H2342 | 0.972 | 1.15 | 1.07 | 1 | 1.21 | – | – | – | – | – | – | – | – | – | – | – | – | – | – | –
16 | NCI-H1650 | 1.41 | 1.34 | 1.42 | 1.3 | 1.18 | 0.961 | 0.855 | 1.04 | 0.877 | 0.82 | – | – | – | – | – | 0.355 | 0.658 | 0.58 | 0.526 | 0.477

From the supplement of paper PMC10307832
